The results in this text go back to US9701709B2 (REATA PHARMACEUTICALS, INC., priority 2012, dated 2017).

The subject of data set [1] is NF-κB in NIH3T3/NF-κB-luc cell line. The data set can be described thus: NF-κB luciferase reporter in NIH3T3/NF-κB-luc. The data set is classed as cell-based. Conditions: Mus musculus. An excerpt: (b) TNF-α-induced activation of an NF-κB luciferase reporter in the mouse NIH3T3 cell line.
(§1) NF-κB is a transcription factor that plays a central role in the regulation of many immune and inflammatory responses. […] The NIH3T3/NF-κB-luc cell line maintains a chromosomal integration of a Firefly luciferase reporter construct regulated by eight copies of the NF-κB response element. The effects of these compounds can be quantified by measuring the value of the NF-κB IC50.
(A reporter such as luciferase makes a cellular process visible.)

In data set [2] the test system is rat GSTA2 ARE (Nrf2) in AREc32 reporter cell line. The data set can be described thus: GSTA2-ARE luciferase reporter in AREc32. To be noted: 4-fold GSTA2-ARE induction.
Data set [3] relates to human NQO1 ARE (Nrf2) in HuH-7 human hepatoma cells. The data set can be described thus: NQO1-ARE luciferase reporter in HuH-7. The data set is classed as cell-based. Conditions: for Concentration required to increase transcription from the NQO1 ARE by 2-fold: HuH-7, 18 h. The text has this:
The first luciferase reporter tested was under the control of a single ARE derived from the promoter of the human NQO1 gene, which allows for quantitative assessment of the endogenous activity of the Nrf2 transcription factor in cultured mammalian cells. […] The NQO1-ARE-luciferase reporter plasmid was constructed by inserting the human NQO1-ARE ([NT] ID NO: 31) into the pLuc-MCS vector using HindIII/XhoI cloning sites (GenScript Corp., Piscataway, N.J.). […] Firefly and Renilla luciferase activity was assayed by Dual-Glo Luciferase Assay (cat # E2920, Promega), and the luminescence signal was measured on an L-Max II luminometer (Molecular Devices). Firefly luciferase activity was normalized to the Renilla activity, and fold induction over a vehicle control (DMSO) of normalized Firefly activity was calculated. […] Values represent the average of three independent experiments.

The subject of data set [4] is TNF-α-induced NF-κB activation in A549/NF-κB-Luc cells. As to the kind of experiment: TNF-α-induced NF-κB luciferase reporter in A549/NF-κB-Luc. The data set is classed as cell-based. To be noted: Homo sapiens.
Text: (b) TNF-α-induced activation of an NF-κB luciferase reporter in the human A549 cell line.
as §1

In the next data set the target is MRP-1 (Homo sapiens, UniProt P33527). As to the kind of experiment: in vitro. To be noted: not told.
Data set [5] in a line: Distribution into mouse tissues after PO QD×3. The data set is classed as in vivo. Conditions: mice PO QD×3 25 mg/kg, 6 h after last dose, semi-quantitative. The method, then:
Semi-quantitative analysis of drug content was performed.

The test system of data set [6] is LPS-induced NO (plasma NOx, Griess Reaction). As to the kind of experiment: Suppression of NO in vivo after LPS in CD-1 mice. Set-up: species or system mouse. Conditions: LPS 5 mg/kg 24 h later. The procedure: FIG. 51—Dose-dependent suppression of NO in vivo by 63415. CD-1 mice (n=6) were dosed with DMSO or […] by oral gavage. LPS (5 mg/kg) was administered 24 h later. Twenty-four hours after LPS administration, whole blood was collected for NO assay. NO inhibition was determined by Griess Reaction from reduced, de-proteinated plasma.

In another data set the test system is NQO1 activity. The data set can be described thus: NQO1 activity induction in mouse liver, lung, and kidney after PO QD×3. In kind it is in vivo. Conditions: mice PO QD×3 25 mg/kg, 6 h after last dose. The procedure: FIG. 53—NQO1 activity induction in mouse liver, lung, and kidney by 63415. Mice were dosed PO QD×3 with 25 mg/kg. Tissues were collected 6 h after the last dose, and analysis of NQO1 activity was performed.

Data set [7] is described as follows: Polymorph screen: crystallization and drying experiments (FT-Raman, PXRD, TG-FTIR, DSC). In kind it is physicochemical. The method, then:
A preformulation and polymorphism study was performed for compound 63415. […] A total of 30 crystallization experiments, including phase equilibrations, drying experiments and other techniques, were carried out. All obtained solids were characterized by FT-Raman spectroscopy. All new forms were characterized by PXRD and TG-FTIR, and optionally by DSC and DVS.
All obtained materials were characterized by FT-Raman spectroscopy; selected samples were also characterized by PXRD.
Suspension equilibration experiments were carried out in one solvent and eleven solvent mixtures (Table 13). Suspensions of ˜100 mg of PP415-P1 in 0.2-2.0 mL of the selected solvents were prepared and shaken for 4-15 days at 22-24° C. The solids were recovered and characterized by FT-Raman spectroscopy; most were characterized also by PXRD.
Hot solutions of PP415-P1 were prepared in one solvent and four solvent mixtures (Table 14). […] In two cases (-P22, -P23) no solid precipitated, even after storage at 4-5° C. for two days. Here, the solvent was evaporated under N2 flow at r.t. The solids were recovered and characterized by FT-Raman spectroscopy and for those with spectra different from the amorphous starting material, FT-Raman class 1, also by PXRD.
Clear solutions of PP415-P1 were prepared in three solvent mixtures (Table 15). The solvents were then slowly evaporated at r.t. under ambient conditions. However, in two of the three experiments (-P15 and -P17) white solid precipitated before evaporation began. The obtained solids were examined by FT-Raman spectroscopy and PXRD.
At least one sample of each class was dried under vacuum with the aim to desolvate the solvates and to obtain non-solvated crystalline forms of 63415 (Table 16). The dried materials were characterized further by FT-Raman, PXRD, and TG-FTIR.
Bruker RFS100 with OPUS 6.5 software; Nd:YAG 1064-nm excitation, Ge detector, 3500-100 cm^−1 range; typical measurement conditions: 100-300 mW nominal laser power, 64-128 scans, 2 cm^−1 resolution.
Stoe Stadi P; Mythen1K Detector; Cu—Kα radiation; standard measurement conditions: transmission; 40 kV and 40 mA tube power; curved Ge monochromator; 0.02°2θ step size, 12 s or 60 s step time, 1.5-50.5°2θ or 1.0-55°2θ scanning range; detector mode: step scan; 1°2θ or 6°2θ detector step; standard sample preparation: 10 to 20 mg sample was placed between two acetate foils; sample holder: Stoe transmission sample holder; the sample was rotated during the measurement.
Netzsch Thermo-Microbalance TG 209 with Bruker FT-IR Spectrometer Vector 22; aluminum crucible (with microhole), N2 atmosphere, 10 K/min heating rate, 25-250° C. or 25-350° C. range.
Perkin Elmer DSC 7; gold crucibles (closed or with microhole), sample filled in an N2 environment, 10 K/min heating rate, −50 to 250° C. or 350° C. range, at times quench cooling (at −200 K/min) to −50° C. between scans.

The nature of data set [8]: Dynamic vapor sorption (hygroscopicity). In kind it is physicochemical. The method, then:
Projekt Messtechnik Sorptions Prüfsystem SPS 11-100n or Surface Measurement Systems DVS-1. The sample was placed on an aluminum or platinum holder on top of a microbalance and allowed to equilibrate for 2 h at 50% r.h. before starting the pre-defined humidity program: • (1) 50→0% r.h. (5%/h); 5 h at 0% r.h. • (2) 0→95% r.h. (5%/h); 5 h at 95% r.h. • (3) 95→50% r.h. (5%/h); 2 h at 50% r.h.

Setting [9] is: not viability normalized, read-out: NIH3T3/NF-κB IC50.
Where [10] appears, read: viability normalized, read-out: NIH3T3/NF-κB IC50, normalized for viability.
Where [11] appears, read: not viability normalized, read-out: NF-κB IC50, human A549 cell line (further experimentation).
Setting [12] is: read-out: NF-κB IC50, human A549 cell line, viability normalized.

Broadly, the efflux ratio is the permeability from basolateral to apical divided by that in the opposite direction, in the common usage.

Read-outs that look alike come from different tables or passages of the source.

Sequence of MRP-1 (P33527 whole entry): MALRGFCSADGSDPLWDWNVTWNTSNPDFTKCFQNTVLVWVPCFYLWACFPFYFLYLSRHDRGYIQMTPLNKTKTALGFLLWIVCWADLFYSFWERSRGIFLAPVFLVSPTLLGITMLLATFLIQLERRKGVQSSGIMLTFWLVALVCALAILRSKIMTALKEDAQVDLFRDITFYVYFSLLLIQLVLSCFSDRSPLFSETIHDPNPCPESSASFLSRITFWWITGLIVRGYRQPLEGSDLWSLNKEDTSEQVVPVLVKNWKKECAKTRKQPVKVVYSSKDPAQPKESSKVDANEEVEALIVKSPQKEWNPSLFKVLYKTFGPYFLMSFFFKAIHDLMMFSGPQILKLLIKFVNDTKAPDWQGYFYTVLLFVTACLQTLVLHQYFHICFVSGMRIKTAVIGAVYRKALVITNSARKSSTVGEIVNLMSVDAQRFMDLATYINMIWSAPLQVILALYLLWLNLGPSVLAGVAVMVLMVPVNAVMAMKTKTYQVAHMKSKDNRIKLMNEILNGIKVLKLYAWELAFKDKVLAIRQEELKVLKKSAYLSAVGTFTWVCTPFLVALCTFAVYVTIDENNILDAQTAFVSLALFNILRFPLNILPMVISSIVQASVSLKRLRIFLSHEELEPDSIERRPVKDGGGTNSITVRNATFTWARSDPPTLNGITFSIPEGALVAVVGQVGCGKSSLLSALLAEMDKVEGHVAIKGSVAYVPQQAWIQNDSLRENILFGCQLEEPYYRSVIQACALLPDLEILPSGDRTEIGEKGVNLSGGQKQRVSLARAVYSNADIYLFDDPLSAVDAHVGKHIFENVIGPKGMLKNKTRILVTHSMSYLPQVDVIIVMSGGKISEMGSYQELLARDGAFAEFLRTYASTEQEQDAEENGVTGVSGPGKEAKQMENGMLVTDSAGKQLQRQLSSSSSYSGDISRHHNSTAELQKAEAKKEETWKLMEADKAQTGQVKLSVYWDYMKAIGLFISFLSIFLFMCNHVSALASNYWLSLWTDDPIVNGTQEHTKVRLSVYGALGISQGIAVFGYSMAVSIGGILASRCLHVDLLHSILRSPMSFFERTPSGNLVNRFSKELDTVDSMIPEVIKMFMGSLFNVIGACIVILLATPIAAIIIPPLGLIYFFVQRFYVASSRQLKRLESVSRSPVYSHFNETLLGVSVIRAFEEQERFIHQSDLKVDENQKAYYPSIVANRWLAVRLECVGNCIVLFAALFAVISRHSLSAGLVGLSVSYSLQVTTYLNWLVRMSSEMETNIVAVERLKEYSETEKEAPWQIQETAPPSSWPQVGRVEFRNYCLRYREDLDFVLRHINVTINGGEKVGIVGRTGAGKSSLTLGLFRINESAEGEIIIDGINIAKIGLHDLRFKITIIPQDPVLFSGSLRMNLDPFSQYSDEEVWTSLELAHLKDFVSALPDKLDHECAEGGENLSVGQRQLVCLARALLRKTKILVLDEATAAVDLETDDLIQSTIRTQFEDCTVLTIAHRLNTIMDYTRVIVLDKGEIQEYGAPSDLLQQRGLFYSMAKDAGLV

Regarding `CC(=O)N[C@]12CCC(C)(C)C[C@H]1[C@H]1C(=O)C=C3[C@@]4(C)C=C(C#N)C(=O)C(C)(C)[C@@H]4CC[C@@]3(C)[C@]1(C)CC2` [Compound 63170], the IC50 came to 1100 nM in [1] (setting [9]), 1100 nM in data set [1] (setting [10]), 1000 nM in [4] (setting [11]) and 1100 nM in data set [4] (setting [12]). Further, in [2], the “Fold increase in amount of compound needed compared to RTA 402 for the same activity” value (shortened to “Fold increase in amount”) came out at 3.40 fold. Also, the “Concentration required to increase transcription from the NQO1 ARE by 2-fold” value in [3] came out at 25.2 nM. The efflux ratio at MRP-1 worked out at 10.
`CC1(C)CC[C@]2(NC(=O)C(F)(F)F)CC[C@]3(C)[C@H](C(=O)C=C4[C@@]5(C)C=C(C#N)C(=O)C(C)(C)[C@@H]5CC[C@]43C)[C@@H]2C1` [Compound 63171]: the IC50 in data set [1] (setting [9]) came out at 1700 nM; in [1] (setting [10]), 1800 nM; in data set [4] (setting [11]) it was 2000 nM; in data set [4] (setting [12]), 2100 nM. In addition, the “Fold increase in amount” value in [2] came out at 2.65 fold. For the same compound, on MRP-1, the efflux ratio turned out to be 11.2.
Regarding `CC1(C)CC[C@]2(NC(=O)CC(F)(F)F)CC[C@]3(C)[C@H](C(=O)C=C4[C@@]5(C)C=C(C#N)C(=O)C(C)(C)[C@@H]5CC[C@]43C)[C@@H]2C1` [Compound 63179], the IC50 in data set [1] (setting [9]) was 200 nM; in [1] (setting [10]) it was 600 nM; in [4] (setting [11]) it was 1400 nM; in [4] (setting [12]) it was 1500 nM. In data set [2], the “Fold increase in amount” value worked out at 6.05 fold. The “Concentration required to increase transcription from the NQO1 ARE by 2-fold” value in data set [3] is recorded as 29.1 nM. The efflux ratio at MRP-1 turned out to be 56.5.
Turning to `CCC(=O)N[C@]12CCC(C)(C)C[C@H]1[C@H]1C(=O)C=C3[C@@]4(C)C=C(C#N)C(=O)C(C)(C)[C@@H]4CC[C@@]3(C)[C@]1(C)CC2` [Compound 63189], the IC50 was found to be 1100 nM in data set [1] (setting [9]), 1000 nM in [1] (setting [10]), 1100 nM in [4] (setting [11]) and 1200 nM in data set [4] (setting [12]). In addition, the “Fold increase in amount” value in data set [2] was 3.47 fold. In addition, the “Concentration required to increase transcription from the NQO1 ARE by 2-fold” value in data set [3] amounted to 14.9 nM. Besides, the efflux ratio at MRP-1 stood at 57.1.
For `CC1(C)CC[C@]2(CO)CC[C@]3(C)[C@H](C(=O)C=C4[C@@]5(C)C=C(C#N)C(=O)C(C)(C)[C@@H]5CC[C@]43C)[C@@H]2C1` [Compound 63355], in data set [3] (62.5 nM), the “NQO1-ARE (fold at 62.5 nM in HuH7)” value was found to be 6.5 ± 0.9 fold.
With `CCNC(=O)[C@]12CCC(C)(C)C[C@H]1[C@H]1C(=O)C=C3[C@@]4(C)C=C(C#N)C(=O)C(C)(C)[C@@H]4CC[C@@]3(C)[C@]1(C)CC2` [RTA 405, reference compound], the concentration at 6 h in data set [5] (brain, read-out: Drug content, Brain) was 93 nM; in data set [5] (kidney, read-out: Drug content, Kidney), 2360 nM; in [5] (liver, read-out: Drug content, Liver), 1140 nM; in [5] (lung, read-out: Drug content, Lung), 1630 nM; in data set [5] (plasma, read-out: Drug content, Plasma), 130 nM; in data set [5] (whole blood, read-out: Drug content, Whole Blood) it was 1160 nM. The “NOx Levels (% vs LPS Controls)” value in data set [6] (13 mg/kg oral gavage) came to 44%; in data set [6] (25 mg/kg oral gavage) it was 26%; in data set [6] (50 mg/kg oral gavage) it was 18%. Further, the “NQO1 activity induction, Kidney” value with NQO1 activity was found to be 8.25. The “NQO1 activity induction, Liver” value with NQO1 activity was determined as 1.93. In addition, the “NQO1 activity induction, Lung” value in the data set with NQO1 activity amounted to 1.48.
On to `CC1(C)CC[C@]2(NC(=O)C(C)(F)F)CC[C@]3(C)[C@H](C(=O)C=C4[C@@]5(C)C=C(C#N)C(=O)C(C)(C)[C@@H]5CC[C@]43C)[C@@H]2C1` [desolvated class 4], for which, in [7], the “DSC: no decomposition up to” value was “no decomposition up to 270 °C”. Further, in [7] (first or main loss, solvent and temperature range per sample as printed), the “TG-FTIR: mass loss (solvent)” value is on record as “TG-FTIR: loss of ~0.9 wt.-%”. Also, the “TG-FTIR: decomposition at T” value in data set [7] (listed as PP415-P37) was “decomposition at T > 280 °C”. In addition, the “DVS: hygroscopicity class” value in data set [8] is reported as “DVS: slightly hygroscopic; Δm = (mass increase <2% but ≧0.2%)”. For the same compound, the “DVS: total mass gain from 0% r.h. to 95% r.h.” value in data set [8] (0% r.h. to 95% r.h.) is on record as “mass gain of 2.1 wt.-% from 0%”. In data set [8] (50%→85% r.h., listed as PP415-P37), the “DVS: Δm (50%→85% r.h.)” value was “+0.7% (50%→85% r.h.); total”. The “post-DVS Raman and/or PXRD: solid form” value in data set [8] (after DVS, listed as PP415-P37) is recorded as “to class 4”. The “Hygroscopicity classification (DVS)” value in data set [8] (mass gain at 85% r.h.) is listed as “slightly hygroscopic (mass increase <2% but ≧0.2%)”.
